Assays:
[1] = mn = molality of the nth substance listed, in mol/kg; details: 101 kPa, Liquid, m2 = 0; for viscosity: Capillary tube (Ostwald / Ubbelohde) method
[2] = wn = mass fraction of the nth substance listed; details: 101 kPa, Liquid; for mass density: Pycnometric method; for viscosity: Capillary tube (Ostwald / Ubbelohde) method
[3] = 101 kPa, Liquid; for viscosity: Capillary tube (Ostwald / Ubbelohde) method

O [water] + C[C@@H](O)[C@H](N)C(=O)O
[1]
Details	viscosity [mPa·s]
298.15 K	0.8903
303.15 K	0.7973
308.15 K	0.719
313.15 K	0.6526
318.15 K	0.5972

Details	mass density [kg/m3]
[1], 308.15 K, Pycnometric method	994.07

O=C[C@H](O)[C@@H](O)[C@H](O)[C@H](O)CO [D-glucose] + O
[2]
Details	mass density, w1 = 0.05 [kg/m3]	mass density, w1 = 0.1 [kg/m3]	mass density, w1 = 0.15 [kg/m3]	mass density, w1 = 0.2 [kg/m3]	viscosity, w1 = 0.05 [mPa·s]	viscosity, w1 = 0.1 [mPa·s]	viscosity, w1 = 0.15 [mPa·s]	viscosity, w1 = 0.2 [mPa·s]
293.15 K	1016.28	1034.79	1053.29	1072.41	–	–	–	–
298.15 K	1014.69	1033.15	1051.61	1070.31	0.9767	1.12	1.316	1.67
303.15 K	1013.08	1031.5	1049.92	1068.17	0.8605	0.9907	1.147	1.491
308.15 K	1011.47	1029.84	1048.37	1065.97	0.7697	0.8844	1.018	1.345
313.15 K	1009.85	1028.17	1046.62	1063.76	0.6945	0.7901	0.8925	1.21
318.15 K	–	1026.48	1044.93	1061.52	0.6334	0.7223	0.8097	1.112

O [water]
[3]
Details	viscosity [mPa·s]
298.15 K	0.8903
303.15 K	0.7973
308.15 K	0.719
313.15 K	0.6526
318.15 K	0.5972

Details	mass density [kg/m3]
[3], 308.15 K, Pycnometric method	994.07
